Results: US20240190874A1, “SMALL MOLECULE DEGRADERS OF ANDROGEN RECEPTOR” (THE REGENTS OF THE UNIVERSITY OF MICHIGAN, priority 2021, published 2024)

Molecular target: T1, AR (Homo sapiens, UniProt P10275)
T1 construct: Degradation of AR; Cellular potency; host or cells: VCaP cells
T1 sequence (P10275 1-920): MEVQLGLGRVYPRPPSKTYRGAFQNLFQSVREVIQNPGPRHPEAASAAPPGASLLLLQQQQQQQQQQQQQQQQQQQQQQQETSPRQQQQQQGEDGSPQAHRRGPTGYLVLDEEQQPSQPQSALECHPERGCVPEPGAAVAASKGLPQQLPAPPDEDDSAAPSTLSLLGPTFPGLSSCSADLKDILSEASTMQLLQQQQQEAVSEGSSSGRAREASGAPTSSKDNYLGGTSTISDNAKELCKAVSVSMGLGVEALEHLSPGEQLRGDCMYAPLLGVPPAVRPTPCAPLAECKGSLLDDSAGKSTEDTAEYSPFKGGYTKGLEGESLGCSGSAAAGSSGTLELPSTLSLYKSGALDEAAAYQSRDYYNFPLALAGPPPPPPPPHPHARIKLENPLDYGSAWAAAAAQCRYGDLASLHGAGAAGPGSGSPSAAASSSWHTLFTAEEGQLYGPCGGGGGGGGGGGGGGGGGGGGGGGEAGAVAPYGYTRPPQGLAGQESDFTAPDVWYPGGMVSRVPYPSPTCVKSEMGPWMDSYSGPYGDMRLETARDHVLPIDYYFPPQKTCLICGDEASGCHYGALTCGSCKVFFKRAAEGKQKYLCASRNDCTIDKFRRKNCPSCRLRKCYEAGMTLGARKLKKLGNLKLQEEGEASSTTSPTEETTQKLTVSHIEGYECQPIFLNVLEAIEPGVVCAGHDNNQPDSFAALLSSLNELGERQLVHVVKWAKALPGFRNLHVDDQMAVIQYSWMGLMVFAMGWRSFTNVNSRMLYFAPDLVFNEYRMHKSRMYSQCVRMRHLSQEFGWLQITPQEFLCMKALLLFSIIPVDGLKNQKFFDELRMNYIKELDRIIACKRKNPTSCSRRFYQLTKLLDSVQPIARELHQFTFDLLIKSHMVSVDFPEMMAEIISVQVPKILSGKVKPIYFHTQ
Assay: Degradation of AR in VCaP cells
Format: cell-based
Conditions: VCaP cells
Method: (§1) Biological Assays. LNCaP and VCaP cells used were purchased from American Type Culture Collection (ATCC). LNCaP were grown in RPMI 1640 (Invitrogen) and VCaP cells were grown in DMEM with Glutamax (Invitrogen). All of the cells were supplemented with 10% fetal bovine serum (Invitrogen) at 37° C. in a humidified 5% CO2 incubator.

`C[C@H]1CC2(CCN(c3ccc(CN4CCC(N5CCN(c6ccc7c(c6)C(=O)N(C6CCC(=O)NC6=O)C7=O)CC5)CC4)cn3)CC2)CN1c1ccc(C#N)c(Cl)c1` (stereo partly drawn) [compound 166] and `C[C@H]1CC2(CCN(c3ccc(CN4CCC(N5CCN(c6cc7c(cc6F)C(=O)N(C6CCC(=O)NC6=O)C7=O)CC5)CC4)cn3)CC2)CN1c1ccc(C#N)c(Cl)c1` (stereo partly drawn) [compound 168] cannot be ordered by DC50: < 0.01 µM for the first, < 0.01 µM for the second.

`C[C@H]1CC2(CCN(c3cnc(CN4CCN(C5CCN(c6ccc7c(c6)C(=O)N(C6CCC(=O)NC6=O)C7=O)CC5)CC4)nc3)CC2)CN1c1ccc(C#N)c(Cl)c1` (stereo partly drawn) [compound 171] and `C[C@H]1CC2(CCN(c3cnc(CN4CCN(C5CN(c6cc7c(cc6F)C(=O)N(C6CCC(=O)NC6=O)C7=O)C5)CC4)nc3)CC2)CN1c1ccc(C#N)c(Cl)c1` (stereo partly drawn) [compound 175] cannot be ordered by DC50: < 0.01 µM for the first, < 0.001 µM for the second.

`C[C@H]1CC2(CCN(c3ccc(CN4CCN(C5CN(c6cc7c(cc6F)C(=O)N(C6CCC(=O)NC6=O)C7=O)C5)CC4)nc3)CC2)CN1c1ccc(C#N)c(Cl)c1` (stereo partly drawn) [compound 172] and `C[C@H]1CC2(CCN(c3ccc(CN4CCN(C5CN(c6cc7c(cc6F)C(=O)N(C6CCC(=O)NC6=O)C7=O)C5)CC4)nn3)CC2)CN1c1ccc(C#N)c(Cl)c1` (stereo partly drawn) [compound 174] cannot be ordered by DC50: < 0.001 µM for the first, < 0.001 µM for the second.

`C[C@H]1CC2(CCN(c3ccc(CN4CCN(C5CN(c6ccc7c(c6)C(=O)N(C6CCC(=O)NC6=O)C7=O)C5)CC4)nn3)CC2)CN1c1ccc(C#N)c(Cl)c1` (stereo partly drawn) [compound 173] and `C[C@H]1CC2(CCN(c3ccc(CN4CCC(C5CN(c6ccc7c(c6)C(=O)N(C6CCC(=O)NC6=O)C7=O)C5)CC4)cn3)CC2)CN1c1ccc(C#N)c(Cl)c1` (stereo partly drawn) [compound 176] cannot be ordered by DC50: < 0.001 µM for the first, < 0.01 µM for the second.

System: VCaP cells
Assay: Cellular potency (IC50) in VCaP cells
Format: cell-based
Conditions: Homo sapiens, VCaP
Method: as §1

`C[C@H]1CC2(CCN(c3ccc(CN4CCC(N5CCN(c6ccc7c(c6)C(=O)N(C6CCC(=O)NC6=O)C7=O)CC5)CC4)cn3)CC2)CN1c1ccc(C#N)c(Cl)c1` (stereo partly drawn) [compound 166] and `C[C@H]1CC2(CCN(c3ccc(CN4CCC(N5CCN(c6cc7c(cc6F)C(=O)N(C6CCC(=O)NC6=O)C7=O)CC5)CC4)cn3)CC2)CN1c1ccc(C#N)c(Cl)c1` (stereo partly drawn) [compound 168] cannot be ordered by IC50: < 0.01 µM for the first, < 0.01 µM for the second.

`C[C@H]1CC2(CCN(c3cnc(CN4CCN(C5CCN(c6ccc7c(c6)C(=O)N(C6CCC(=O)NC6=O)C7=O)CC5)CC4)nc3)CC2)CN1c1ccc(C#N)c(Cl)c1` (stereo partly drawn) [compound 171] and `C[C@H]1CC2(CCN(c3cnc(CN4CCN(C5CN(c6cc7c(cc6F)C(=O)N(C6CCC(=O)NC6=O)C7=O)C5)CC4)nc3)CC2)CN1c1ccc(C#N)c(Cl)c1` (stereo partly drawn) [compound 175] cannot be ordered by IC50: < 0.1 µM for the first, < 0.01 µM for the second.

`C[C@H]1CC2(CCN(c3ccc(CN4CCN(C5CN(c6cc7c(cc6F)C(=O)N(C6CCC(=O)NC6=O)C7=O)C5)CC4)nc3)CC2)CN1c1ccc(C#N)c(Cl)c1` (stereo partly drawn) [compound 172] and `C[C@H]1CC2(CCN(c3ccc(CN4CCN(C5CN(c6cc7c(cc6F)C(=O)N(C6CCC(=O)NC6=O)C7=O)C5)CC4)nn3)CC2)CN1c1ccc(C#N)c(Cl)c1` (stereo partly drawn) [compound 174] cannot be ordered by IC50: < 0.01 µM for the first, < 0.01 µM for the second.

`C[C@H]1CC2(CCN(c3ccc(CN4CCN(C5CN(c6ccc7c(c6)C(=O)N(C6CCC(=O)NC6=O)C7=O)C5)CC4)nn3)CC2)CN1c1ccc(C#N)c(Cl)c1` (stereo partly drawn) [compound 173] and `C[C@H]1CC2(CCN(c3ccc(CN4CCC(C5CN(c6ccc7c(c6)C(=O)N(C6CCC(=O)NC6=O)C7=O)C5)CC4)cn3)CC2)CN1c1ccc(C#N)c(Cl)c1` (stereo partly drawn) [compound 176] cannot be ordered by IC50: < 0.1 µM for the first, < 0.01 µM for the second.

System: LNCaP cells
Assay: Cellular potency (IC50) in LNCaP cells
Format: cell-based
Conditions: Homo sapiens, LNCaP
Method: as §1

`C[C@H]1CC2(CCN(c3ccc(CN4CCC(N5CCN(c6ccc7c(c6)C(=O)N(C6CCC(=O)NC6=O)C7=O)CC5)CC4)cn3)CC2)CN1c1ccc(C#N)c(Cl)c1` (stereo partly drawn) [compound 166] and `C[C@H]1CC2(CCN(c3ccc(CN4CCC(N5CCN(c6cc7c(cc6F)C(=O)N(C6CCC(=O)NC6=O)C7=O)CC5)CC4)cn3)CC2)CN1c1ccc(C#N)c(Cl)c1` (stereo partly drawn) [compound 168] cannot be ordered by IC50: < 0.1 µM for the first, < 0.01 µM for the second.

`C[C@H]1CC2(CCN(c3cnc(CN4CCN(C5CCN(c6ccc7c(c6)C(=O)N(C6CCC(=O)NC6=O)C7=O)CC5)CC4)nc3)CC2)CN1c1ccc(C#N)c(Cl)c1` (stereo partly drawn) [compound 171] and `C[C@H]1CC2(CCN(c3cnc(CN4CCN(C5CN(c6cc7c(cc6F)C(=O)N(C6CCC(=O)NC6=O)C7=O)C5)CC4)nc3)CC2)CN1c1ccc(C#N)c(Cl)c1` (stereo partly drawn) [compound 175] cannot be ordered by IC50: < 0.01 µM for the first, < 0.01 µM for the second.

`C[C@H]1CC2(CCN(c3ccc(CN4CCN(C5CN(c6cc7c(cc6F)C(=O)N(C6CCC(=O)NC6=O)C7=O)C5)CC4)nc3)CC2)CN1c1ccc(C#N)c(Cl)c1` (stereo partly drawn) [compound 172] and `C[C@H]1CC2(CCN(c3ccc(CN4CCN(C5CN(c6cc7c(cc6F)C(=O)N(C6CCC(=O)NC6=O)C7=O)C5)CC4)nn3)CC2)CN1c1ccc(C#N)c(Cl)c1` (stereo partly drawn) [compound 174] cannot be ordered by IC50: < 0.01 µM for the first, < 0.01 µM for the second.

`C[C@H]1CC2(CCN(c3ccc(CN4CCN(C5CN(c6ccc7c(c6)C(=O)N(C6CCC(=O)NC6=O)C7=O)C5)CC4)nn3)CC2)CN1c1ccc(C#N)c(Cl)c1` (stereo partly drawn) [compound 173] and `C[C@H]1CC2(CCN(c3ccc(CN4CCC(C5CN(c6ccc7c(c6)C(=O)N(C6CCC(=O)NC6=O)C7=O)C5)CC4)cn3)CC2)CN1c1ccc(C#N)c(Cl)c1` (stereo partly drawn) [compound 176] cannot be ordered by IC50: < 0.01 µM for the first, < 0.01 µM for the second.
